What all share (test): cell proliferation inhibitory activity, WST-8 (Test Example 3)
Common to all, as to assay type: cell-based
(Tetrazolium assays rely on reduction of a dye to a coloured formazan, in cell work by metabolically active cells.)

Assay [1] concerns H1650 (Lung adenocarcinoma cell line). Conditions: Homo sapiens, NCI-H1650, 48 h; H1650, 2 days with compound, WST-8, Table 3. Here is the method:
(§1) Compounds RS8 to RS10 obtained in Synthesis Examples 8 to 10 were examined for cell proliferation inhibitory activity against human cultured cancer cells. The cancer cells used were two human lung adenocarcinoma cell lines and one human lung squamous cell carcinoma cell line. The cancer cells of each type were seeded on a 96-well plate and cultured for 2 days, and cultured for 2 days with addition of serially diluted products of the compounds, and the cell proliferation was then measured by colorimetry with a water-soluble tetrazolium salt (WST-8). Thereafter, 50% cell proliferation inhibitory concentrations (GI50) were calculated from the cell proliferation curves.

The test system of assay [2] is H226 (Lung squamous cell carcinoma cell line). Conditions: Homo sapiens, NCI-H226, 48 h; H226, 2 days with compound, WST-8, Table 3. How it is done: as §1
The subject of assay [3] is H2228 (Lung adenocarcinoma cell line). The settings on record: Homo sapiens, NCI-H2228, 48 h; H2228, 2 days with compound, WST-8, Table 3. How it is done:
as §1

Regarding `C[C@@H]1[C@@H](O)[C@H](C)C[C@@H]2C=C[C@H](C)[C@H](/C=C/C=C(\Br)C(=O)OCc3ccccn3)[C@@H]12` [RS10, Pyridin-2″-ylmethyl (2Z,4E)-2-bromo-5-((1′S,2′S,4′aR,6′R,7′S,8′S,8′aS)-7′-hydroxy-2′,6′,8′-trimethyl-1′,2′,4′a,5′,6′,7′,8′,8′a-octahydronaphthalen-1′-yl)penta-2,4-dienoate], the GI50 (usually the concentration that inhibits growth by half) in assay [1] was determined as 500 nM; in assay [2], 300 nM; in assay [3] it was 700 nM.
The like results for `C[C@@H]1[C@@H](O)[C@H](C)C[C@@H]2C=C[C@H](C)[C@H](/C=C/C=C(\Br)C(=O)OCc3cccnc3)[C@@H]12` [RS9, Pyridin-3″-ylmethyl (2Z,4E)-2-bromo-5-((1′S,2′S,4′aR,6′R,7′S,8′S,8′aS)7′-hydroxy-2′,6′,8′-trimethyl-1′,2′,4′a,5′,6′,7′,8′,8′a-octahydronaphthalen-1′-yl)penta-2,4-dienoate] were, in that order, 200 nM, 40 nM and 400 nM.
The matching figures for `C[C@@H]1[C@@H](O)[C@H](C)C[C@@H]2C=C[C@H](C)[C@H](/C=C/C=C(\Br)C(=O)NCc3ccccn3)[C@@H]12` [RS8, (2Z,4E)-2-Bromo-5-((1′S,2′S,4′aR,6′R,7′S,8′S,8′aS)-7′-hydroxy-2′,6′,8′-trimethyl-1′,2′,4′a,5′,6′,7′,8′,8′a-octahydronaphthalen-1′-yl)-N-(pyridin-2″-ylmethyl)penta-2,4-dienamide]: 300 nM, 40 nM and 300 nM.

The values are drawn from patent US12570618B2, “Compound, production method therefor, and pharmaceutical composition” (TOKYO UNIVERSITY OF SCIENCE FOUNDATION, priority 2021, dated 2026).
